The results in this text go back to patent EP0409227A2, “Pyrimidine nucleosides, their preparation and pharmaceutical preparations” (MATTHES, Eckart, Dr., priority 1989, dated 1991).

Series [1] concerns HBsAg-Sekretion von Hep G2 (2.2.15)-Zellen. Nature of the series: Inhibition of HBsAg secretion of Hep G2 (2.2.15) cells (solid-phase radioimmunoassay of the medium). The series is classed as cell-based, HBV. As to the method:
(§1) Die Testung der antiviralen Wirksamkeit der Nucleoside auf zelluärer Ebene erfolgte an einer menschlichen Hepatoblastom-Zellinie, die mit dem HBV-Genom tranfiziert wurde und sowohl das Oberflächenantigen des Virus (HBsAg) als auch die HBV-DNA permanent produziert und infektiöse Viruspartikel in das Medium abgibt (Hep G2-Zellen, Klon 2.2.15, Sells et al. Proc.Natl.Acad. Sci. 84, 1005 (1987)). Die Zellen (5x10⁵/ml) wurden in RPMI 1640-Medium mit 2 mM Glutamin und 10% fetalem Kälberserum allein oder zusammen mit den Nucleosid-Analoga für 4 Tage inkubiert, danach wurden den Ansätzen für 24 Stunden ³H-Thymidin bzw. ³H-Desoxyadenosin (3 µCi/ml) zugesetzt, die Zellen abzentrifugiert und darin die säureunlösliche Radioaktivität und damit der Einfluß auf die DNA-Synthese bestimmt. Im Inkubationsmedium wurde das HBsAg durch Festphasenradioimmunoassay (Travenol-Genentech Diagnostics, Cambridge, MA) entsprechend den Instruktionen des Herstellers ermittelt. Die Tabelle 4 faßt die Ergebnisse zusammen, die belegen, daß die getesteten Verbindungen hochwirksame und selektive Hemmstoffe der HBV-Vermehrung sind.

Another series relates to Hep G2 (2.2.15)-Zellen. Nature of the series: DNA synthesis of Hep G2 (2.2.15) cells (acid-insoluble radioactivity after 3H-thymidine or 3H-deoxyadenosine). The series is classed as cell-based, menschlichen. The following applies: 4 days, then 24 h label, mean ± SD of five experiments. As for the experimental part: as §1
In a further series the target is T1, HBV-Polymerase (Hepatitis B virus genotype D subtype ayw, UniProt P03156).
T1 construct: Es wurde zunächst die Hemmbarkeit der HBV-assoziierten Polymerase; host or cells: virus-associated endogenous polymerase
Nature of the series: Inhibition of HBV polymerase activity by nucleoside triphosphate analogues (method of Kaplan et al.). The series is classed as biochemical. An excerpt: Das Hepatitis B Virus (HBV) besitzt eine zirkuläre, partiell doppelsträngige DNA, welche nach Infektion einer Leberzelle durch eine viruseigene Polymerase repliziert wird. Dieser Vorgang setzt jedoch die Synthese einer RNA durch eine zelluläre RNA-Polymerase voraus. Nur diese RNA-Matrize - im Zusammenhang mit der Replikation auch als Prägenom bezeichnet - kann von der HBV-Polymerase für die Synthese zunächst eines RNA-DNA Hybrids und dann der doppelsträngigen DNA benutzt werden. Damit verfügt die HBV-Polymerase über eine enzymatische Aktivität, die der einer reversen Transcriptase ähnelt (Will et al., J.Virology 61, 904 (1987)). Es wurde zunächst die Hemmbarkeit der HBV-assoziierten Polymerase durch die 5′-Triphosphate der erfindungsgemäßen Verbindungen untersucht. Dazu wurde die von Kaplan et al. (J.Virology 12, 995 (1973)) angegebene Methode zur Bestimmung der HBV-Polymerase benutzt, wobei die zu testenden Triphosphate den Ansätzen in verschiedenen Konzentrationen zugesetzt wurden. Die Hemmung der Enzymreaktion wurde nach 3-stündiger Inkubation bei 37 °C durch Vergleich mit einem Kontrollwert ermittelt und daraus die Konzentration der zugesetzten Analoga bestimmt, die zu einer 50 %igen Hemmung der HBV-Polymerase-Aktivität führt (ID₅₀). Tabelle 1 zeigt die Ergebnisse, wobei insbesondere 2′,3′-Didesoxy-3′-fluor-5-methylcytidin durch einen Wert ID₅₀ von 0,03 µM herausragt und damit zu den stärksten bisher bekannten Hemmstoffen der HBV-Polymerase zu rechnen ist. Tabelle 1

Where [2] appears, read: nucleoside 0,01 µM, 4 days + 24 h, mean ± SD of five experiments.
Setting [3] is: nucleoside 0,1 µM, 4 days + 24 h, mean ± SD of five experiments.
Where [4] appears, read: nucleoside 0,01 µM, % of control without nucleoside (100).
[5] abbreviates: nucleoside 0,1 µM, % of control without nucleoside (100).
[6] abbreviates: nucleoside 0,03 µM, 4 days + 24 h, mean ± SD of five experiments.
The mark [7] stands for this setting: nucleoside 0,3 µM, 4 days + 24 h, mean ± SD of five experiments.
Where [8] appears, read: nucleoside 0,03 µM, % of control without nucleoside (100).
The mark [9] stands for this setting: nucleoside 0,3 µM, % of control without nucleoside (100).
Where [10] appears, read: nucleoside 0,003 µM, 4 days + 24 h, mean ± SD of five experiments.
The mark [11] stands for this setting: nucleoside 0,003 µM, % of control without nucleoside (100).
[12] abbreviates: nucleoside 1,0 µM, 4 days + 24 h, mean ± SD of five experiments.
Setting [13] is: nucleoside 1,0 µM, % of control without nucleoside (100).
The mark [14] stands for this setting: nucleoside 3,0 µM, 4 days + 24 h, mean ± SD of five experiments.
[15] abbreviates: nucleoside 3,0 µM, % of control without nucleoside (100).

Like-named read-outs stand apart in the source and are kept apart here.

T1 sequence (P03156 whole entry): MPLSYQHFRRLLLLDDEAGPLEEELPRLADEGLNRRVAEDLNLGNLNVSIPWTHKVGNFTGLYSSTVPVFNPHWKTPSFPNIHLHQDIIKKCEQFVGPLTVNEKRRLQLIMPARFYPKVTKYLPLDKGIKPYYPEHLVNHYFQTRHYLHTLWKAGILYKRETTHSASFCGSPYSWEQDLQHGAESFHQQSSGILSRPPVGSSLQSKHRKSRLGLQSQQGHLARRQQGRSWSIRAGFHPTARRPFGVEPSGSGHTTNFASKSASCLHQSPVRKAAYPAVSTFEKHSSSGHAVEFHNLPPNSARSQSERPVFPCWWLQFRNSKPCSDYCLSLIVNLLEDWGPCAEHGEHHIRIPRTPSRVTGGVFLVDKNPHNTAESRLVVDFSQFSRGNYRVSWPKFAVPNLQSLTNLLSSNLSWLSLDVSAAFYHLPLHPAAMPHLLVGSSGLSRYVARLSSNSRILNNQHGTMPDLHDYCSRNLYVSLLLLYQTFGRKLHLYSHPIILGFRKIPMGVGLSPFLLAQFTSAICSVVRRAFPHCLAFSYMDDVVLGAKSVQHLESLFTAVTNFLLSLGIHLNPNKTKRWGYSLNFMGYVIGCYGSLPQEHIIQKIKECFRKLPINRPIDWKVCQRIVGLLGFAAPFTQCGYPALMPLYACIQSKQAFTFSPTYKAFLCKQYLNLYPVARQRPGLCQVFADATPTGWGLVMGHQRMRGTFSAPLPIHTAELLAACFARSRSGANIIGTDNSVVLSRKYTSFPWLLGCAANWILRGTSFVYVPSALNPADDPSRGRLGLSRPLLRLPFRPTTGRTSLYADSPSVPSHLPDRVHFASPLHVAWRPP

Consider `Nc1ccn([C@H]2C=C[C@@H](CO)O2)c(=O)n1` [2',3'-Didehydro-2',3'-didesoxycytidin], for which the HBsAg in series [1] (setting [2]) is given as 12,1 ± 1,6 ng/ml; in series [1] (setting [3]), 0,8 ± 0,2 ng/ml; in series [1] (setting [4]), 69%; in series [1] (setting [5]), 5%; in series [1] (setting [6]), 5,8 ± 1,2 ng/ml; in series [1] (setting [7]), 0,4 ± 0,2 ng/ml. For the same compound, the HBsAg in series [1] (setting [8]) is 33%; in series [1] (setting [9]), 2%; in series [1] (setting [10]), 18,7 ± 2,8 ng/ml; in series [1] (setting [11]) it was 107%; in series [1] (setting [12]), < 0,1 ng/ml; in series [1] (setting [13]), less than 1%. Moreover, the HBsAg in series [1] (setting [14]) is reported as < 0,1 ng/ml; in series [1] (setting [15]), less than 1%. The “^3H-DNA” value stood at 18410 ± 1895 dpm/Kultur with Hep G2 (2.2.15)-Zellen (nucleoside 0,01 µM); 19930 ± 1830 dpm/Kultur in the series on Hep G2 (2.2.15)-Zellen (nucleoside 0,1 µM); 15685 ± 1740 dpm/Kultur with Hep G2 (2.2.15)-Zellen (nucleoside 0,03 µM); 14270 ± 1655 dpm/Kultur with Hep G2 (2.2.15)-Zellen (nucleoside 0,3 µM); 17940 ± 1865 dpm/Kultur in the series on Hep G2 (2.2.15)-Zellen (nucleoside 0,003 µM); 12350 ± 1310 dpm/Kultur with Hep G2 (2.2.15)-Zellen (nucleoside 1,0 µM). The “^3H-DNA” value with Hep G2 (2.2.15)-Zellen (nucleoside 3,0 µM) worked out at 6535 ± 790 dpm/Kultur.

For the compound `Nc1nc(N)c2ncn([C@H]3C[C@H](F)[C@@H](CO)O3)c2n1` [2',3'-Didesoxy-3'-fluor-2,6-diaminopurinribosid], the HBsAg in series [1] (setting [2]) is 3,2 ± 0,6 ng/ml; in series [1] (setting [3]), < 0,1 ng/ml; in series [1] (setting [4]), 18%; in series [1] (setting [5]), less than 1%; in series [1] (setting [6]), 2,0 ± 0,5 ng/ml; in series [1] (setting [7]) it was < 0,1 ng/ml. For the same compound, the HBsAg in series [1] (setting [8]) was 11%; in series [1] (setting [9]), less than 1%; in series [1] (setting [10]), 15,9 ± 2,7 ng/ml; in series [1] (setting [11]) it was 91%; in series [1] (setting [12]), < 0,1 ng/ml; in series [1] (setting [13]), less than 1%. Besides, the HBsAg in series [1] (setting [14]) is reported as < 0,1 ng/ml; in series [1] (setting [15]) it was less than 1%. The “^3H-DNA” value in the series with Hep G2 (2.2.15)-Zellen (nucleoside 0,01 µM) is on record as 16820 ± 1775 dpm/Kultur; with Hep G2 (2.2.15)-Zellen (nucleoside 0,1 µM), 19990 ± 1820 dpm/Kultur; in the series with Hep G2 (2.2.15)-Zellen (nucleoside 0,03 µM) it was 17265 ± 1895 dpm/Kultur; in the series with Hep G2 (2.2.15)-Zellen (nucleoside 0,3 µM), 15125 ± 1795 dpm/Kultur; in the series with Hep G2 (2.2.15)-Zellen (nucleoside 0,003 µM), 19535 ± 1835 dpm/Kultur; in the series with Hep G2 (2.2.15)-Zellen (nucleoside 1,0 µM), 18885 ± 1950 dpm/Kultur. The “^3H-DNA” value in the series with Hep G2 (2.2.15)-Zellen (nucleoside 3,0 µM) is on record as 17740 ± 1670 dpm/Kultur.

Take `CCc1cn([C@H]2C[C@H](F)[C@@H](CO)O2)c(=O)nc1N` [2',3'-Didesoxy-3'-fluor-5-ethylcytidin]: the HBsAg is given as 8,2 ± 0,8 ng/ml in series [1] (setting [2]); 0,6 ± 0,1 ng/ml in series [1] (setting [3]); 42% in series [1] (setting [4]); 3% in series [1] (setting [5]); 2,6 ± 0,6 ng/ml in series [1] (setting [6]); < 0,1 ng/ml in series [1] (setting [7]). Moreover, the HBsAg is 13% in series [1] (setting [8]); less than 1% in series [1] (setting [9]); 16,7 ± 2,6 ng/ml in series [1] (setting [10]); 87% in series [1] (setting [11]); < 0,1 ng/ml in series [1] (setting [12]); less than 1% in series [1] (setting [13]). The values for the HBsAg in series [1] (setting [14]) and in series [1] (setting [15]) were < 0,1 ng/ml and less than 1%, respectively. In addition, the “^3H-DNA” value in the series with Hep G2 (2.2.15)-Zellen (nucleoside 0,01 µM) is recorded as 13855 ± 1945 dpm/Kultur; in the series with Hep G2 (2.2.15)-Zellen (nucleoside 0,1 µM), 15245 ± 1655 dpm/Kultur; with Hep G2 (2.2.15)-Zellen (nucleoside 0,03 µM) it was 14570 ± 1695 dpm/Kultur; with Hep G2 (2.2.15)-Zellen (nucleoside 0,3 µM), 14130 ± 1940 dpm/Kultur; in the series with Hep G2 (2.2.15)-Zellen (nucleoside 0,003 µM) it was 14020 ± 1780 dpm/Kultur; in the series with Hep G2 (2.2.15)-Zellen (nucleoside 1,0 µM), 9850 ± 1230 dpm/Kultur. In the series on Hep G2 (2.2.15)-Zellen (nucleoside 3,0 µM), the “^3H-DNA” value was determined as 6640 ± 965 dpm/Kultur.

Take `Nc1nc2c(ncn2[C@H]2C[C@H](N)[C@@H](COP(=O)(O)OP(=O)(O)OP(=O)(O)O)O2)c(=O)[nH]1` [2′,3′-Didesoxy-3′-aminoguanosin-5′-triphosphat]: the IC50 on HBV-Polymerase (50 % inhibition of HBV polymerase activity, 3 h incubation at 37 °C, read-out: ID₅₀) was 4 µM.

On HBV-Polymerase, `Nc1ncc2ncn([C@H]3C[C@H](F)[C@@H](COP(=O)(O)OP(=O)(O)OP(=O)(O)O)O3)c2n1` [2′,3′-Didesoxy-3′-fluor-2-aminopurinribosid-5′-triphosphat] registered an IC50 of 0.6 µM.

On HBV-Polymerase, `Nc1nc2c(ncn2[C@H]2C[C@H](F)[C@@H](COP(=O)(O)OP(=O)(O)OP(=O)(O)O)O2)c(=S)[nH]1` [2′,3′-Didesoxy-3′-fluor-6-thioguanosin-5′-triphosphat] gave an IC50 of 0.5 µM.

Consider `Cc1cn([C@@H]2O[C@H](CO)[C@@H](O)[C@@H]2O)c(=O)nc1N` [Arabinosyl-5-methyl-cytosin, 1-β-D-Arabinofuranosyl-5-methylcytosin], for which the HBsAg in series [1] (setting [2]) is on record as 12,4 ± 1,2 ng/ml; in series [1] (setting [3]), 3,6 ± 0,5 ng/ml; in series [1] (setting [4]), 71%; in series [1] (setting [5]), 21%; in series [1] (setting [6]), 10,3 ± 1,2 ng/ml; in series [1] (setting [7]), 0,6 ± 0,3 ng/ml. In addition, the HBsAg in series [1] (setting [8]) was 59%; in series [1] (setting [9]), 3%; in series [1] (setting [10]) it was 16,8 ± 1,7 ng/ml; in series [1] (setting [11]) it was 96%; in series [1] (setting [12]) it was < 0,1 ng/ml; in series [1] (setting [13]) it was less than 1%. The HBsAg in series [1] (setting [14]) is < 0,1 ng/ml; in series [1] (setting [15]), less than 1%. Also, the “^3H-DNA” value amounted to 17990 ± 1635 dpm/Kultur in the series on Hep G2 (2.2.15)-Zellen (nucleoside 0,01 µM); 16225 ± 1825 dpm/Kultur in the series with Hep G2 (2.2.15)-Zellen (nucleoside 0,1 µM); 19075 ± 1905 dpm/Kultur in the series with Hep G2 (2.2.15)-Zellen (nucleoside 0,03 µM); 18600 ± 1865 dpm/Kultur in the series on Hep G2 (2.2.15)-Zellen (nucleoside 0,3 µM); 17755 ± 1750 dpm/Kultur with Hep G2 (2.2.15)-Zellen (nucleoside 0,003 µM); 12415 ± 1070 dpm/Kultur in the series on Hep G2 (2.2.15)-Zellen (nucleoside 1,0 µM). For the same compound, the “^3H-DNA” value in the series on Hep G2 (2.2.15)-Zellen (nucleoside 3,0 µM) is reported as 8470 ± 935 dpm/Kultur.
